Tests used:
Assay in all cases: KINOMEscan
Conditions in all cases: read-out: Percent Control
JNK1 = JNK1 (Homo sapiens, UniProt P45983)
Procedure: (§1) The kinase engagement assay (KINOMEscan®) was performed by DiscoverX assessing binding abilities toward a set of kinases.

GRK4 = GRK4 (Homo sapiens, UniProt P32298)
Procedure: as §1

[1] = biological target: RSK1(Kin.Dom.1-N-terminal) (Homo sapiens, UniProt Q15418)
Procedure: as §1

MLCK = MLCK (Homo sapiens, UniProt Q32MK0)
Procedure: as §1

BIKE = BIKE (Homo sapiens, UniProt Q9NSY1)
Procedure: as §1

PIK3CD = PIK3CD (Homo sapiens, UniProt O00329)
Procedure: as §1

PRKX = PRKX (Homo sapiens, UniProt P51817)
Procedure: as §1

JNK3 = JNK3 (Homo sapiens, UniProt P53779)
Procedure: as §1

ABL1-phosphorylated = ABL1-phosphorylated (Homo sapiens, UniProt P00519)
Procedure: as §1

IRAK4 = IRAK4 (Homo sapiens, UniProt Q9NWZ3)
Procedure: as §1

CSK = CSK (Homo sapiens, UniProt P41240)
Procedure: as §1

RIPK1 = RIPK1 (Homo sapiens, UniProt Q13546)
Sequence of RIPK1 (Q13546 whole entry): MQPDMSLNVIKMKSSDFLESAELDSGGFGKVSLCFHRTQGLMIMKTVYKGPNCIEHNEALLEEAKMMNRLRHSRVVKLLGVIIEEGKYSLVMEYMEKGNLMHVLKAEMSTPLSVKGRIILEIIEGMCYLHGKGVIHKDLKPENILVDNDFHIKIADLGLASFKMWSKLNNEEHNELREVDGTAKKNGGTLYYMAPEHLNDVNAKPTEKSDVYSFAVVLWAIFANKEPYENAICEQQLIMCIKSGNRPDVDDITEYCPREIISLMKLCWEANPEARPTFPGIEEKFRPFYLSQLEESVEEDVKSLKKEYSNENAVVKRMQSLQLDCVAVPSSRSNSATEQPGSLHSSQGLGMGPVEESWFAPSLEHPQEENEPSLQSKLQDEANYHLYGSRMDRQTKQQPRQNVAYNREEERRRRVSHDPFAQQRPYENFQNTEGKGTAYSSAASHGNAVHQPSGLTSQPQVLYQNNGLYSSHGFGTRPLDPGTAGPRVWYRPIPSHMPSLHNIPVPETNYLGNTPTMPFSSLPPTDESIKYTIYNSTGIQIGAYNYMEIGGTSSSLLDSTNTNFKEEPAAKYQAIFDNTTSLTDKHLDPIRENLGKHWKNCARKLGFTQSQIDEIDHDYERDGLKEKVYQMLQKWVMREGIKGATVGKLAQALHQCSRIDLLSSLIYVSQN
Procedure: as §1

PHKG2 = PHKG2 (Homo sapiens, UniProt P15735)
Procedure: as §1

EGFR(E746-A750del) = EGFR(E746-A750del) (Homo sapiens, UniProt P00533, DEL746-750)
Procedure: as §1

[2] = biological target: RPS6KA5(Kin.Dom.1-N-terminal) (Homo sapiens, UniProt O75582)
Sequence of RPS6KA5(Kin.Dom.1-N-terminal) (O75582 49-318 limits assumed): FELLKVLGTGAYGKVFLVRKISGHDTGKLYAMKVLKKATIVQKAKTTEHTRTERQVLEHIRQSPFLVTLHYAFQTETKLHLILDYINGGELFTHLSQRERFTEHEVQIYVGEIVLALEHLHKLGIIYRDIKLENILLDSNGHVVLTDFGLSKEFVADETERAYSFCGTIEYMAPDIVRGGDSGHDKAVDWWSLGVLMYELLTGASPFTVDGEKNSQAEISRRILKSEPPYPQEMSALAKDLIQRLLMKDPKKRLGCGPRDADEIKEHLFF
Procedure: as §1

CLK1 = CLK1 (Homo sapiens, UniProt P49759)
Sequence of CLK1 (P49759 whole entry): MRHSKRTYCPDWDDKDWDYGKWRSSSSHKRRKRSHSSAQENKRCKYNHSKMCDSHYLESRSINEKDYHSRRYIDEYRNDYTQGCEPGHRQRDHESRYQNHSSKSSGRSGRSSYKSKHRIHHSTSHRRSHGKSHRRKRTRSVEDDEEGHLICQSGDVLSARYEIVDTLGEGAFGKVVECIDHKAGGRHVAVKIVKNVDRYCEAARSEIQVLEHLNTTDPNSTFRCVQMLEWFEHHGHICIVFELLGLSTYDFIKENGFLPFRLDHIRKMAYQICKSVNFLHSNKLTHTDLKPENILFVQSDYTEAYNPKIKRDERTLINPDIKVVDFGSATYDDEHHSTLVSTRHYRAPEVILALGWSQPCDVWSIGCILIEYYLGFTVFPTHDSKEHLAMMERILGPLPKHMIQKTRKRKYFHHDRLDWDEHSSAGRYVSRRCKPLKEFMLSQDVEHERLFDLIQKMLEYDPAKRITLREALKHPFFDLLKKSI
Procedure: as §1

EPHA7 = EPHA7 (Homo sapiens, UniProt Q15375)
Sequence of EPHA7 (Q15375 28-998): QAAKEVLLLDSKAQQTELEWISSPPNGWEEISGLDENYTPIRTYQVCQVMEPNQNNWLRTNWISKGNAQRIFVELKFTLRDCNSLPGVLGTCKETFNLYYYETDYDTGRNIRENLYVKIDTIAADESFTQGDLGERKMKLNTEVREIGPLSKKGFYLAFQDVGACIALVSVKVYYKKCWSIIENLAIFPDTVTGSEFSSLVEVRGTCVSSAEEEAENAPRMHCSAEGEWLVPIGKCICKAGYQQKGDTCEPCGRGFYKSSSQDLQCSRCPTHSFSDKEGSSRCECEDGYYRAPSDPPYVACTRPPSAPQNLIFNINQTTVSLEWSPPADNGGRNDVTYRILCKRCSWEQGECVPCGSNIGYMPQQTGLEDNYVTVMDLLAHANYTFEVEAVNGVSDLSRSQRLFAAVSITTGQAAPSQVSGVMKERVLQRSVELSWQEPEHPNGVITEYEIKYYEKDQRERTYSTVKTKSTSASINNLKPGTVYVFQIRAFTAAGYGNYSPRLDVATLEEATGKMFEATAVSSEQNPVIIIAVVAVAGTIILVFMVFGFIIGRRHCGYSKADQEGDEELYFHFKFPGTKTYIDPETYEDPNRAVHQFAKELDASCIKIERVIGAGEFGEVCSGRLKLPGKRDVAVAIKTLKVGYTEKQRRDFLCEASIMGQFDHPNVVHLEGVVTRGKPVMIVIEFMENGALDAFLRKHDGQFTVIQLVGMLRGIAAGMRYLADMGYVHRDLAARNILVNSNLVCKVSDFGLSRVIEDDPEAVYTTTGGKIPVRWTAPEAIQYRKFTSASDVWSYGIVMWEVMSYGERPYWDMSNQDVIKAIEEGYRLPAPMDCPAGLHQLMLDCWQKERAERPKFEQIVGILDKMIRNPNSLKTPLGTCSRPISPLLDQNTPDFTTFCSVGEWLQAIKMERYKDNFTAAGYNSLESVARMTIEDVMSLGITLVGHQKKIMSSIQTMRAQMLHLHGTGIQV
Procedure: as §1

EPHB3 = EPHB3 (Homo sapiens, UniProt P54753)
Procedure: as §1

DYRK1B = DYRK1B (Homo sapiens, UniProt Q9Y463)
Sequence of DYRK1B (Q9Y463 whole entry): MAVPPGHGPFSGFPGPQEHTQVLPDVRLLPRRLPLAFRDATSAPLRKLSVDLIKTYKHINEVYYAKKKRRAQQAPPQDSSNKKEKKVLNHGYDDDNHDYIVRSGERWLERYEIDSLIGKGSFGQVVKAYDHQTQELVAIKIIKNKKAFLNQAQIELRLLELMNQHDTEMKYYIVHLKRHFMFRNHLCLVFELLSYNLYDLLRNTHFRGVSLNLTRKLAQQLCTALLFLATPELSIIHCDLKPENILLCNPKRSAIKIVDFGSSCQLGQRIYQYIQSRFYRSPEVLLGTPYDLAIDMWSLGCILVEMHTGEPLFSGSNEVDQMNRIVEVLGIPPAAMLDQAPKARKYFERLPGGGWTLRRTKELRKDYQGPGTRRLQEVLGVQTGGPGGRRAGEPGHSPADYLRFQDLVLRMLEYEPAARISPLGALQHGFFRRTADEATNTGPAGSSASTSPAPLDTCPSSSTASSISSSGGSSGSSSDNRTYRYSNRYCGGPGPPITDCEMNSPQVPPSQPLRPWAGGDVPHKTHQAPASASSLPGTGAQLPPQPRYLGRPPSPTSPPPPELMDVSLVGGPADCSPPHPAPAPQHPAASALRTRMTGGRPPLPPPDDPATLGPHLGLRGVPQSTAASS
Procedure: as §1

DLK = DLK (Homo sapiens, UniProt Q12852)
Procedure: as §1

MAK = MAK (Homo sapiens, UniProt P20794)
Procedure: as §1

[3] = biological target: ABL1(F317I)-nonphosphorylated (Homo sapiens, UniProt P00519, F317I)
Procedure: as §1

CSNK1E = CSNK1E (Homo sapiens, UniProt P49674)
Procedure: as §1

BRK = BRK (Homo sapiens, UniProt Q13882)
Procedure: as §1

CSNK1G3 = CSNK1G3 (Homo sapiens, UniProt Q9Y6M4)
Procedure: as §1

FLT3(N841I) = FLT3(N841I) (Homo sapiens, UniProt P36888, N841I)
Procedure: as §1

[4] = biological target: TYK2(JH2domain-pseudokinase) (Homo sapiens, UniProt P29597)
Procedure: as §1

EGFR = EGFR (Homo sapiens, UniProt P00533)
Procedure: as §1

[5] = biological target: ABL1(E255K)-phosphorylated (Homo sapiens, UniProt P00519, E255K)
Procedure: as §1

CTK = CTK (Homo sapiens, UniProt P42679)
Procedure: as §1

RAF1 = RAF1 (Homo sapiens, UniProt P04049)
Sequence of RAF1 (P04049 whole entry): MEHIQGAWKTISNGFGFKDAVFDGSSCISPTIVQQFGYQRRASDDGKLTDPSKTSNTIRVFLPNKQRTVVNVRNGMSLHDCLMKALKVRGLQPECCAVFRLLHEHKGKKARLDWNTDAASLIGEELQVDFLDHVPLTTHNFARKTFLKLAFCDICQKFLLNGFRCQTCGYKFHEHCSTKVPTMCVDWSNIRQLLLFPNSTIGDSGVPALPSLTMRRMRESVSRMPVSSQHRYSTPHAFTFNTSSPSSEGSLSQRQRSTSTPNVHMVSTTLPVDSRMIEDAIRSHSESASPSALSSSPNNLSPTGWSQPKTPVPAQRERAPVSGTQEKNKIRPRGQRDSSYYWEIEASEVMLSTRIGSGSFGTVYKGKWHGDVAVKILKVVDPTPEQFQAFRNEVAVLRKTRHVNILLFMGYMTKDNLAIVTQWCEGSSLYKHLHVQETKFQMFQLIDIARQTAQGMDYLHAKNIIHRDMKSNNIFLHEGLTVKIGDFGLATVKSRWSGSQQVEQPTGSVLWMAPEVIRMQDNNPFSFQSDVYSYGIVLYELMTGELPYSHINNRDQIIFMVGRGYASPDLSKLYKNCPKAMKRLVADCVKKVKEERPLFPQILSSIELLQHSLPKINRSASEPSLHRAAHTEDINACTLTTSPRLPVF
Procedure: as §1

TAOK2 = TAOK2 (Homo sapiens, UniProt Q9UL54)
Procedure: as §1

CASK = CASK (Homo sapiens, UniProt O14936)
Procedure: as §1

PLK4 = PLK4 (Homo sapiens, UniProt O00444)
Procedure: as §1

SLK = SLK (Homo sapiens, UniProt Q9H2G2)
Procedure: as §1

[6] = biological target: RSK3(Kin.Dom.2-C-terminal) (Homo sapiens, UniProt Q15349)
Procedure: as §1

PAK6 = PAK6 (Homo sapiens, UniProt Q9NQU5)
Procedure: as §1

Sequence of GRK4 (P32298 whole entry): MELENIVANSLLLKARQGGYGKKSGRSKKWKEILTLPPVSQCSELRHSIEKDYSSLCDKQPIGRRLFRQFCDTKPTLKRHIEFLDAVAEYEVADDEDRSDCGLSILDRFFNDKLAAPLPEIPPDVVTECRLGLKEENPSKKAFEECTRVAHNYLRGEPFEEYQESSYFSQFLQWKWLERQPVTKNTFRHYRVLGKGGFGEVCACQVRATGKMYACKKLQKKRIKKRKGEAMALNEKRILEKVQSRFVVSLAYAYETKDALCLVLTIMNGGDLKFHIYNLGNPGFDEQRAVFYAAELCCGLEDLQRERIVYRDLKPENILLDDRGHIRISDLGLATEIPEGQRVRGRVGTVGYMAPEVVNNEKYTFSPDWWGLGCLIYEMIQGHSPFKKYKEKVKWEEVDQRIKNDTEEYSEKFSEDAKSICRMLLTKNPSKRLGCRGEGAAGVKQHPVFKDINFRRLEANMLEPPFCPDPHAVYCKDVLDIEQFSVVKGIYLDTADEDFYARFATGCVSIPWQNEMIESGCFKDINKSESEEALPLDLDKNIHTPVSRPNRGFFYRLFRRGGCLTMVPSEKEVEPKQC
Sequence of RSK1(Kin.Dom.1-N-terminal) (Q15418 62-321 limits assumed): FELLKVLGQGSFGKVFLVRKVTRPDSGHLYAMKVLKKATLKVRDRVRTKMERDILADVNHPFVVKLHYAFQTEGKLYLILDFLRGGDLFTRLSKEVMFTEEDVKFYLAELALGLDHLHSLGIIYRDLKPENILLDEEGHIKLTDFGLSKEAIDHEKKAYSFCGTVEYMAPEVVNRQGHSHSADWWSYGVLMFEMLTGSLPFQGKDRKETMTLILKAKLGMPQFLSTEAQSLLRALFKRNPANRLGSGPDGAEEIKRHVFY
Sequence of JNK1 (P45983 whole entry): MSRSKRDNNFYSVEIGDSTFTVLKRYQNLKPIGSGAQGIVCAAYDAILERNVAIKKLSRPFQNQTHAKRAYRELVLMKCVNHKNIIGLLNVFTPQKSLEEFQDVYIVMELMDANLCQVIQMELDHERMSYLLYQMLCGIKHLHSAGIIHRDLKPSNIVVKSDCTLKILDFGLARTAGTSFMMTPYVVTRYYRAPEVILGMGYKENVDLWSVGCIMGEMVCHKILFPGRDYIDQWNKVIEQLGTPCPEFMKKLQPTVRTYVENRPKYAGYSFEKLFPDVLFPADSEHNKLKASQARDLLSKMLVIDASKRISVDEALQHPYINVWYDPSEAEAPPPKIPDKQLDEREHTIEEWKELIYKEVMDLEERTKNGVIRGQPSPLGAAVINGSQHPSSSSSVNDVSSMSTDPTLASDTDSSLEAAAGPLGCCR

Question: What does the source list for `O=C1CCC(N2C(=O)c3cccc(NCCCCCCCCNC(=O)N4CC[C@H](NC5=Nc6cc(F)ccc6N(CC(F)F)c6ccc(Cl)cc65)C4)c3C2=O)C(=O)N1` (stereo partly drawn) [BJG-05-039, (3S)-3-((2-Chloro-5-(2,2-difluoroethyl)-8-fluoro-5H-dibenzo[b,e][1,4]diazepin-11-yl)amino)-N-(8-((2-(2,6-dioxopiperidin-3-yl)-1,3-dioxoisoindolin-4-yl)amino)octyl)pyrrolidine-1-carboxamide]?
Answer: remaining binding at 10 µM (JNK1): 83%; remaining binding at 10 µM (GRK4): 71%; remaining binding at 10 µM [1]: 87%; remaining binding at 10 µM (MLCK): 66%; remaining binding at 10 µM (BIKE): 74%; remaining binding at 10 µM (PIK3CD): 100%; remaining binding at 10 µM (PRKX): 48%; remaining binding at 10 µM (JNK3): 88%; remaining binding at 10 µM (ABL1-phosphorylated): 100%; remaining binding at 10 µM (IRAK4): 100%; remaining binding at 10 µM (CSK): 74%; remaining binding at 10 µM (RIPK1): 65%; remaining binding at 10 µM (PHKG2): 40%; remaining binding at 10 µM (EGFR(E746-A750del)): 100%; remaining binding at 10 µM [2]: 94%; remaining binding at 10 µM (CLK1): 57%; remaining binding at 10 µM (EPHA7): 90%; remaining binding at 10 µM (EPHB3): 89%; remaining binding at 10 µM (DYRK1B): 100%; remaining binding at 10 µM (DLK): 100%; remaining binding at 10 µM (MAK): 98%; remaining binding at 10 µM [3]: 91%; remaining binding at 10 µM (CSNK1E): 61%; remaining binding at 10 µM (BRK): 72%; remaining binding at 10 µM (CSNK1G3): 63%; remaining binding at 10 µM (FLT3(N841I)): 100%; remaining binding at 10 µM [4]: 97%; remaining binding at 10 µM (EGFR): 74%; remaining binding at 10 µM [5]: 100%; remaining binding at 10 µM (CTK): 89%; remaining binding at 10 µM (RAF1): 97%; remaining binding at 10 µM (TAOK2): 93%; remaining binding at 10 µM (CASK): 99%; remaining binding at 10 µM (PLK4): 85%; remaining binding at 10 µM (SLK): 91%; remaining binding at 10 µM [6]: 51%; remaining binding at 10 µM (PAK6): 99%

Reference: patent publication US20250312462A1, “PAK1 DEGRADERS AND METHODS OF USE THEREOF” (INSTITUTE FOR CANCER RESEARCH D/B/A THE RESEARCH INSTITUTE …, priority 2022, published 2025)
